Experimental data reported in patent US6096707A, “Integrin binding peptide and use thereof” (BioTie Therapies Ltd., priority 1997, dated 2000).
Positions of bridges follow the written chain, without caps; N, C: chain ends. Residues, ends and D or L forms follow the SMILES beside them.

Biological target: T1, human recombinant integrin α2I domain (rα2I) (Homo sapiens, UniProt P17301)
T1 construct: GST (glutathione S-transferase, pGEX2T) (N, cleaved yes); made in house; host or cells: E. coli BL21 (pJKα2I, pGEX2T backbone)
T1 sequence (P17301 153-368): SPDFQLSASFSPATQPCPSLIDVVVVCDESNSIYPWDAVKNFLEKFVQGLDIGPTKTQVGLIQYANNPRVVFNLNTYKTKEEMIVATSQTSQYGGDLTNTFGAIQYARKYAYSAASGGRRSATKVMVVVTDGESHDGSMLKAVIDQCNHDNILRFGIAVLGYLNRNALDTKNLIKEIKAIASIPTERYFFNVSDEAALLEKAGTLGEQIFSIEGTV
Format: binding
Experimental: A 96-well immunoplate (Maxisorp, Nunc) was coated by exposing the surface of its well to 0.1 ml of PBS containing 5 μg/cm^2 of the plate surface, type I collagen (bovine dermal, Cellon), type IV collagen (Sigma), laminin-1 (purified from basement membranes of the Engelbreth-Holm-Swarm mouse tumor, Collaborative Research), fibronectin (human plasma fibronectin, Boehringer Mannheim) or 3.3 μg/ml echovirus-1 or echovirus-7 for 12 h at +4° C. Alternatively peptides and B. jararaca venom (Sigma) were coated at various concentrations on 96-well amine binding plates (Costar) according to the manufacturer's instructions.
Residual protein absorption sites on all wells were blocked with 0.1% heat inactivated bovine serum albumin in PBS for 1 h at +37° C. Echoviruses 1 (Farouk strain) and 7 (Wallace) were obtained from the ATCC. The purified viruses were diluted in PBS containing 0.5 mM MgCl2 and stored at -70° C. until used. Europium labeled rα2I was added at a concentration of 500 ng/ml in PBS, 2 mM MgCl2, 1 mg/ml BSA to the coated wells and incubated for 3 h at +37° C. Wells were then washed three times with PBS, 2mM MgCl2. 0.1 ml Delfia enhancement solution (Wallac) was added to each well and europium signal was measured with fluorometry (Model 1232 Delfia, Wallac). […]

C[C@@H]1NC(=O)[C@H](CC(N)=O)NC(=O)[C@H](CC(=O)O)NC(=O)[C@H](Cc2c[nH]cn2)NC(=O)[C@H](CCCCN)NC(=O)[C@H](CCCCN)NC(=O)[C@H](CCCNC(=N)N)NC(=O)[C@H]([C@@H](C)O)NC(=O)[C@@H](N)CSSC[C@@H](C(=O)O)NC(=O)[C@H](CCC(N)=O)NC1=O [229ox, CTRKKHDNAQC] (H-CTRKKHDNAQC-OH; disulfide 1-11)
inhibition of rα2I binding to B. jararaca venom by peptide: about 50%
